In paper PMC11995724, “Antibiotic target discovery by integrated phenotypic and activity-based profiling of electrophilic fragments” (Cell chemical biology, 2025):
Where a name gives a salt, the structure may show the parent alone.

Assay: in vitro
Details: human, hek293t cells

Compared with `CC(=O)Nc1c(C)cc(C)c(C(=O)CCl)c1C` [10-A12, N-[3-(2-chloroacetyl)-2,4,6-trimethylphenyl]acetamide], `Cc1ccc(S(=O)(=O)N(C)C)cc1NC(=O)C(C)Cl` (stereo not shown) [4-I06, 2-chloro-N-[5-(dimethylsulfamoyl)-2-methylphenyl]propanamide] is lower in viability at 48 h, 25 µM: 98.1% for the first, 69.7% for the second.

First: C=CC(=O)NCC1CN(Cc2cccc(C)c2)CCO1 (stereo not shown) [3-A05, N-({4-[(3-methylphenyl)methyl]morpholin-2-yl}methyl)prop-2-enamide]
Second: C=CC(=O)NCC1CNC(=O)c2ccccc21 (stereo not shown) [2-F17, N-[(1-oxo-1,2,3,4-tetrahydroisoquinolin-4-yl)methyl]prop-2-enamide]
The viability at 48 h, 25 µM of the first is lower: 41% for the first, 54.8% for the second.

Compared with `CSc1ccc(C=C(C#N)C(=O)N2CCCC2)cc1` [8-I11, 3-[4-(methylsulfanyl)phenyl]-2-(pyrrolidine-1-carbonyl)prop-2-enenitrile], `CC(C)NC(=O)C(C#N)=Cc1ccc(C(C)C)cc1` [9-I11, 2-cyano-N-(propan-2-yl)-3-[4-(propan-2-yl)phenyl]prop-2-enamide] is lower in viability at 48 h, 25 µM: 106% for the first, 78.1% for the second.

Going from `CC(Cl)C(=O)NC1CCN(c2ccccc2C(F)(F)F)C1` (stereo not shown) [7-C17, 2-chloro-N-{1-[2-(trifluoromethyl)phenyl]pyrrolidin-3-yl}propanamide] to `CC(Cl)C(=O)NC1CCCc2ccccc21` (stereo not shown) [5-M19, 2-chloro-N-(1,2,3,4-tetrahydronaphthalen-1-yl)propanamide], the viability at 48 h, 25 µM rises from 67.5% to 74.2%.

Compared with `O=C(CCl)NSc1ccc([N+](=O)[O-])cc1` [4-P13, 2-chloro-N-[(4-nitrophenyl)sulfanyl]acetamide], `O=C(CCl)N(Cc1ccc(Cl)c([N+](=O)[O-])c1)c1ccccc1` [6-H06, 2-chloro-N-[(4-chloro-3-nitrophenyl)methyl]-N-phenylacetamide] is lower in viability at 48 h, 25 µM: 3.88% for the first, 0.976% for the second.

First: Cc1ccsc1C=C(C#N)C(=O)Nc1c(Cl)cccc1Cl [8-D22, 2-cyano-N-(2,6-dichlorophenyl)-3-(3-methylthiophen-2-yl)prop-2-enamide]
Second: N#CC(=Cc1cccc(Cl)c1Cl)C(=O)Nc1ccc(F)cc1 [8-P22, 2-cyano-3-(2,3-dichlorophenyl)-N-(4-fluorophenyl)prop-2-enamide]
The viability at 48 h, 25 µM of the first is lower: 78.5% for the first, 92.8% for the second.

Compared with `CC(Cl)C(=O)N(Cc1cccs1)[C@@H]1C=C[C@H](CO)C1` (stereo partly drawn) [7-E14, 2-chloro-N-[(1S,4R)-4-(hydroxymethyl)cyclopent-2-en-1-yl]-N-[(thiophen-2-yl)methyl]propanamide], `CC(c1cccs1)N(C)C(=O)CCl` (stereo not shown) [6-M21, 2-chloro-N-methyl-N-[1-(thiophen-2-yl)ethyl]acetamide] is lower in viability at 48 h, 25 µM: 87.9% for the first, 0.384% for the second.

First: C=CC(=O)N(CC)Cc1nc2ccsc2c(=O)[nH]1 [3-P16, N-ethyl-N-({4-oxo-3H,4H-thieno[3,2-d]pyrimidin-2-yl}methyl)prop-2-enamide]
Second: C=CC(=O)N(CC)CC(=O)N1CCc2c(ncn2CC)C1 [2-H08, N-ethyl-N-(2-{1-ethyl-1H,4H,5H,6H,7H-imidazo[4,5-c]pyridin-5-yl}-2-oxoethyl)prop-2-enamide]
The viability at 48 h, 25 µM of the first is lower: 78.2% for the first, 84.8% for the second.

Compared with `C=CC(=O)N1CCC(NC(C)=O)(c2noc(C)n2)C1` (stereo not shown) [2-G16, N-[3-(5-methyl-1,2,4-oxadiazol-3-yl)-1-(prop-2-enoyl)pyrrolidin-3-yl]acetamide], `C=CC(=O)N1CCC(C(=O)NCc2nc(C)c(C)s2)CC1` [3-B12, N-[(4,5-dimethyl-1,3-thiazol-2-yl)methyl]-1-(prop-2-enoyl)piperidine-4-carboxamide] is lower in viability at 48 h, 25 µM: 94.8% for the first, 87.5% for the second.

First: CC(Cl)C(=O)NC1CCCCC1 (stereo not shown) [4-O06, 2-chloro-N-cyclohexylpropanamide]
Second: Cc1ccc(F)c(N2CCC(NC(=O)CCl)CC2)c1 [5-M14, 2-chloro-N-[1-(2-fluoro-5-methylphenyl)piperidin-4-yl]acetamide]
The viability at 48 h, 25 µM of the first is lower: 115% for the first, 134% for the second.

First: C=CC(=O)Nc1ccc(C2=NNC(=O)CO2)cc1 [3-L18, N-[4-(5-oxo-5,6-dihydro-4H-1,3,4-oxadiazin-2-yl)phenyl]prop-2-enamide]
Second: O=C(CCl)Nc1ccc(CN2CCCCC2)cc1 [6-M04, 2-chloro-N-{4-[(piperidin-1-yl)methyl]phenyl}acetamide hydrochloride]
The viability at 48 h, 25 µM of the first is higher: 67.1% for the first, 0.0889% for the second.

Compared with `C=CC(=O)N1CCc2c(ncn2-c2ccccc2)C1` [3-N09, 1-{1-phenyl-1H,4H,5H,6H,7H-imidazo[4,5-c]pyridin-5-yl}prop-2-en-1-one], `CC(Cl)C(=O)N1CCc2oc(-c3ccccc3)cc2C1` (stereo not shown) [6-B21, 2-chloro-1-{2-phenyl-4H,5H,6H,7H-furo[3,2-c]pyridin-5-yl}propan-1-one] is lower in viability at 48 h, 25 µM: 70.1% for the first, 67.2% for the second.

Compared with `CC(C)NC(=O)C(C#N)=Cc1cccc(O)c1` [8-A22, 2-cyano-3-(3-hydroxyphenyl)-N-(propan-2-yl)prop-2-enamide], `N#CC(=Cc1cccc(O)c1)C(=O)Nc1ccc(N2CCOCC2)cc1` [8-I14, 2-cyano-3-(3-hydroxyphenyl)-N-[4-(morpholin-4-yl)phenyl]prop-2-enamide] is higher in viability at 48 h, 25 µM: 67.3% for the first, 82.5% for the second.

Compared with `O=C(CCl)Nc1cc(-n2nnnc2C2CC2)ccc1F` [6-E09, 2-chloro-N-[5-(5-cyclopropyl-1H-1,2,3,4-tetrazol-1-yl)-2-fluorophenyl]acetamide], `Cc1cc(C)cc(-c2cc(NC(=O)CCl)n(-c3ccccc3)n2)c1` [4-K04, 2-chloro-N-[3-(3,5-dimethylphenyl)-1-phenyl-1H-pyrazol-5-yl]acetamide] is lower in viability at 48 h, 25 µM: 2.11% for the first, -0.323% for the second.

First: Cc1nnc(C(C)NC(=O)C(C)Cl)s1 (stereo not shown) [7-D11, 2-chloro-N-[1-(5-methyl-1,3,4-thiadiazol-2-yl)ethyl]propanamide]
Second: C=CC(=O)NCc1cc(Cl)cc(S(C)(=O)=O)c1 [3-N15, N-[(3-chloro-5-methanesulfonylphenyl)methyl]prop-2-enamide]
The viability at 48 h, 25 µM of the first is higher: 104% for the first, 76.8% for the second.

First: N#CC(C(=O)Nc1ccc2c(c1)OCCO2)=C1N=C(N)c2ccccc21 [8-L03, 2-(3-amino-1H-isoindol-1-ylidene)-2-cyano-N-(2,3-dihydro-1,4-benzodioxin-6-yl)acetamide]
Second: COc1ccc(C=C(C#N)C(=O)Nc2cccc(C)c2)cc1 [8-M03, 2-cyano-3-(4-methoxyphenyl)-N-(3-methylphenyl)prop-2-enamide]
The viability at 48 h, 25 µM of the first is lower: 83.5% for the first, 95.7% for the second.

Compared with `N#CC(=Cc1ccc([N+](=O)[O-])c(Cl)c1)C(=O)NCc1ccccc1` [8-D08, N-benzyl-3-(3-chloro-4-nitrophenyl)-2-cyanoprop-2-enamide], `CC(C)(C)c1ccc(C=C(C#N)C(=O)NCc2ccco2)cc1` [8-L14, 3-(4-tert-butylphenyl)-2-cyano-N-[(furan-2-yl)methyl]prop-2-enamide] is higher in viability at 48 h, 25 µM: 1.37% for the first, 76.1% for the second.

Going from `Cc1cc(C(=O)CCl)c(C)n1CCc1ccc(Cl)cc1` [10-N16, 2-chloro-1-{1-[2-(4-chlorophenyl)ethyl]-2,5-dimethyl-1H-pyrrol-3-yl}ethan-1-one] to `O=C(CCl)Cc1ccc(Cl)c(Cl)c1` [10-E15, 1-chloro-3-(3,4-dichlorophenyl)propan-2-one], the viability at 48 h, 25 µM rises from 0.625% to 1.56%.

Work on `N#CC(=Cc1ccc(N2CCOCC2)cc1)C(=O)NCC1CCCO1` (stereo not shown) [9-O10, 2-cyano-3-[4-(morpholin-4-yl)phenyl]-N-[(oxolan-2-yl)methyl]prop-2-enamide] yielded a viability at 48 h, 25 µM of 120%.
